Measured values: patent US8735421B2, “Imidazoquinolinyl sulfonamides” (3M Innovative Properties Company, priority 2003, dated 2014)

Structure (SMILES) | melting point
CCOCc1nc2c(N)nc3cccnc3c2n1CCCCS(=O)(=O)N(C)C [Example 29, N,N-Dimethyl 4-(4-Amino-2-ethoxymethyl-1H-imidazo[4,5-c][1,5]naphthyridin-1-yl)butane-1-sulfonamide] | 148 to 150 °C
CCCc1nc2c(N)nc3cccnc3c2n1CCCCS(=O)(=O)N(C)C [Example 30, N,N-Dimethyl 4-(4-Amino-2-propyl-1H-imidazo[4,5-c][1,5]naphthyridin-1-yl)butane-1-sulfonamide] | 162 to 163 °C
CCCc1nc2c(N)nc(C)c(C)c2n1CCCCS(N)(=O)=O [Example 31, 4-(4-Amino-6,7-dimethyl-2-propyl-1H-imidazo[4,5-c]pyridin-1-yl)butane-1-sulfonamide] | 167 to 169 °C
CCOCc1nc2c(N)nc3cccnc3c2n1CCCCS(=O)(=O)NC [Example 32, N-Methyl 4-(4-Amino-2-ethoxymethyl-1H-imidazo[4,5-c][1,5]naphthyridin-1-yl)butane-1-sulfonamide] | 148 to 150 °C
CCCc1nc2c(N)nc3cccnc3c2n1CCCCS(=O)(=O)NC [Example 33, N-Methyl 4-(4-Amino-2-propyl-1H-imidazo[4,5-c][1,5]naphthyridin-1-yl)butane-1-sulfonamide] | 174 to 175 °C
CCOCc1nc2c(N)nc(C)c(C)c2n1CCCCS(=O)(=O)NC [Example 34, N-Methyl 4-(4-Amino-6,7-dimethyl-2-ethoxymethyl-1H-imidazo[4,5-c]pyridin-1-yl) butane-1-sulfonamide] | 194.5 to 196 °C
CCOCc1nc2c(N)nc(C)c(C)c2n1CCCCS(N)(=O)=O [Example 35, 4-(4-Amino-2-ethoxymethyl-6,7-dimethyl-1H-imidazo[4,5-c]pyridin-1-yl)butane-1-sulfonamide] | 200 to 201.5 °C

Other lines, results leading:

melting point | Structure (SMILES)
161 to 163 °C | CCOCc1nc2c(N)nc3ccccc3c2n1CC(C)(C)CS(=O)(=O)NC [Example 36, 3-[4-Amino-2-(ethoxymethyl)-1H-imidazo[4,5-c]quinolin-1-yl]-N,2,2-trimethylpropane-1-sulfonamide]
146 to 147 °C | CCOCc1nc2c(N)nc3ccccc3c2n1CCCCS(=O)(=O)NC(C)C [Example 37, 4-[4-Amino-2-(ethoxymethyl)-1H-imidazo[4,5-c]quinolin-1-yl]-N-isopropylbutane-1-sulfonamide]
203 to 205 °C | CCOCc1nc2c(N)nc3c(c2n1CCCCCS(N)(=O)=O)CCCC3 [Example 38, 5-[4-amino-2-(ethoxymethyl)-6,7,8,9-tetrahydro-1H-imidazo[4,5-c]quinolin-1-yl]pentane-1-sulfonamide]
166 to 170 °C | CCc1nc2c(N)nc3c(c2n1CCCCS(=O)(=O)NC)CCCC3 [Example 39, N-Methyl 4-(4-amino-2-ethyl-6,7,8,9-tetrahydro-1H-imidazo[4,5-c]quinolin-1-yl)butane-1-sulfonamide]
197 to 200 °C | CCOCc1nc2c(N)nc3ccccc3c2n1CCCCS(=O)(=O)Nc1ccccn1 [Example 40, 4-[4-Amino-2-(ethoxymethyl)-1H-imidazo[4,5-c]quinolin-1-yl]-N-(pyridin-2-yl)butane-1-sulfonamide]
203 to 205 °C | CCOCc1nc2c(N)nc3ccccc3c2n1CC(C)(C)CS(=O)(=O)NCc1ccc(OC)cc1 [Example 41, 3-[4-Amino-2-(ethoxymethyl)-1H-imidazo[4,5-c]quinolin-1-yl]-N-(4-methoxybenzyl)-2,2-dimethylpropane-1-sulfonamide]
229 to 231 °C | CCOCc1nc2c(N)nc3ccccc3c2n1CC(C)(C)CS(N)(=O)=O [Example 42, 3-[4-Amino-2-(ethoxymethyl)-1H-imidazo[4,5-c]quinolin-1-yl]-2,2-dimethylpropane-1-sulfonamide]
242 to 243 °C (dec.) | Cc1nc2c(N)nc3c(c2n1CC(C)(C)CS(N)(=O)=O)CCCC3 [Example 43, 3-(4-Amino-2-methyl-6,7,8,9-tetrahydro-1H-imidazo[4,5-c]quinolin-1-yl)-2,2-dimethylpropane-1-sulfonamide]
